{
  "source": "patent US20210260069A1",
  "about": "“IRE1a INHIBITOR IN COMBINATION WITH CANCER [sequence] AGENT FOR CANCER TREATMENT” (Fosun Orinove PharmaTech, Inc., priority 2018, published 2021)",
  "key": {"human liver HUH-7 cells": {"test_system": "human liver HUH-7 cells", "experiment": "Subcutaneous HUH-7 liver cancer xenograft model, survival (Example 23)", "type": "in vivo, Female BALB/c nude mice", "experimental": "Female BALB/c nude mice were subcutaneously inoculated with human liver HUH-7 cells (from JCRB) to establish a xenograft model of liver cancer. The scheduled administration cycle was 28 days. Animals were assigned into 4 groups (n=10/group): one vehicle group, two single treatment groups (Orin 1001 administered at 80 mg/kg/day q.d. for 28 days; Sorafenib administered following a dose regimen of 18.25 mg/kg/day q.d. for 5 days, then 25 mg/kg/day q.d. for 3 days, and then 45 mg/kg/day q.d. for 20 days, consecutively) and one combination treatment group (sorafenib administered following a dose regimen of 18.25 mg/kg/day q.d. for 5 days, then 25 mg/kg/day q.d. for 3 days, and then 45 mg/kg/day q.d. for 20 days, consecutively, whilst combined with Orin 1001 administered q.d. at a dose of 80 mg/kg/day for 28 days). All vehicle or administration treatments were given via oral gavage. Sorafenib was formulated with Kolliphor® EL/ethanol (2/1, v/v) and water. Orin 1001 was dissolved with cellulose microcrystalline and sucrose in purified water to form as suspension. The mice were euthanized if a tumor volume achieved over 2000 mm^3. Otherwise the experiment ended on the 6th day after the last administration."}, "RPMI 8226 tumor cells": {"test_system": "RPMI 8226 tumor cells", "experiment": "Intratumoral XBP-1 spliced effect in Velcade treated RPMI xenografts", "type": "in vivo, Nude mice", "conditions": "Orin 1001 30 mg/kg PO on Day 27 in Velcade treated mice, tumor taken four hours later", "experimental": "The mice were treated again on the 24th day with Velcade®. On Day 27, the mice were treated with Orin 1001 at 30 mg/kg PO, four hours later the mice were sacrificed as in Example 25, and tumor tissues were isolated. In a similar way as described for the liver PD test in Example 25, RNA extraction and RT-PCR analysis gave the results as shown FIG. 13.\nBALB/c mice were injected intraperitoneally with 100 microliters at an equivalent dose of 1 mg/kg tunicamycin solution. Two hours after tunicamycin injection, mice were dosed with compound of interest either PO or IV. Following 2 hours for PO delivery of compound, mice were euthanized according to IACUC protocols using CO2 from a […] source. A 1 cm^3 fragment of the liver for homogenization and extraction of the RNA were collected for further analysis. Total RNA is harvested from cells or tissue using TRIzol according to the manufacturer's procedures. After ethanol precipitation and resuspension of the RNA, RiboGreen (Invitrogen) is used to quantify the yield and normalize the RNA concentration in the source tube containing isolated RNA. RT-PCR is performed by Oligo(dT) priming, and SuperScript II (Invitrogen) transcription using the Amplitaq Gold Kit (Applied Biosystems) according to the manufacturer's protocols. […]"}, "[1]": {"test_system": "human breast adenocarcinoma MDA-MB231 tumor cells", "type": "in vivo", "experimental": "Orin 1001 was administered by oral gavage in combination with paclitaxel in a xenograft mouse model using female NCr nu/nu mice (n=10 in each group) injected subcutaneously with human breast adenocarcinoma MDA-MB231 tumor cells. To evaluate the effect of Orin 1001 in combination with paclitaxel, Orin 1001 was administered via oral gavage at 75, 150 or 300 mg/kg/day in combination with paclitaxel at 10 mg/kg iv, weekly (n=10/group) for up to 60 days."}, "7-day toxicity study": {"experiment": "7-day toxicity study", "type": "in vivo", "conditions": "cynomolgus monkey"}},
  "data": [
    {"molecule": "COc1cc2c(C)c(CC(=O)N3CCOCC3)c(=O)oc2c(C=O)c1O", "note": "[Orin 1001]", "values": [
      {"measurement": "Median Survival Time (MST)", "setting": "human liver HUH-7 cells; Orin 1001 80 mg/kg/day q.d. 28 days, sorafenib 18.25/25/45 mg/kg, Kaplan-Meier", "result": 20, "unit": "days"},
      {"measurement": "ILS (%) (increase of life span)", "setting": "human liver HUH-7 cells; versus vehicle group (group 1)", "result": 0, "unit": "%"},
      {"measurement": "inhibition of activated IRE1 (intratumoral XBP1s)", "setting": "RPMI 8226 tumor cells", "result": "can inhibit the activity of the activated IRE1"},
      {"measurement": "clinical signs of toxicity", "setting": "[1]; 75, 150 or 300 mg/kg/day oral gavage with paclitaxel 10 mg/kg iv weekly, up to 60 days", "result": "no clinical signs of toxicity"},
      {"measurement": "tolerability of extended oral dosing", "setting": "[1]; up to 60 consecutive days", "result": "well tolerated"},
      {"measurement": "5-fold safety margin", "setting": "7-day toxicity study", "result": 750, "unit": "mg/kg/day"},
      {"measurement": "NOAEL at 7 day", "setting": "7-day toxicity study; in vivo, read-out: No Observable Adverse Effect Level (NOAEL)", "result": 150, "unit": "mg/kg/day"}
    ]}
  ]
}
